Measured values reported in PMC9694334, “Synthesis and Biological Evaluation of a Fused Structure of Indolizine and Pyrrolo[1,2-c]pyrimidine: Identification of Its Potent Anticancer Activity against Liver Cancer Cells” (Pharmaceuticals, 2022).

Assays:
[1] = system: HaCaT cells; assay: Cell viability assay (MTS) in HaCaT cells; type: cell-based, human; details: Homo sapiens, mean, n = 5
Experimental: (§1) HepG2, Huh7, H1299, HT29, AGS and A549 cells were purchased from the Korean Cell Line Bank (Seoul, Korea) and HaCaT cells were obtained from Prof. Sohee Kwon (Yonsei University, Korea). Liver cancer cells (HepG2), human keratinocyte cells (HaCaT), and lung cancer cells (A549) were grown in DMEM high-glucose medium, liver cancer cells (Huh7) and non-small cell lung cancer cells (H1299) were grown in RPMI 1640, and gastric cancer cells (AGS) were grown in Coon’s modified F12 medium. All media were supplemented with 10% FBS, 100 Units/mL penicillin, and 100 μg/mL streptomycin. All cells were incubated at 37 °C, 5% CO2 and 95% humidity.
(§2) Cell viability assay was conducted using Cell Titer 96® AQueous One Solution Cell proliferation Assay kit (Promega, Madison, WI, USA). Five cancer cells and HaCaT cells were plated in 96-well microplates with growth medium for 24 h. When cell confluency reached ~30%, cells were treated with DMSO (vehicle) and test compounds. The medium and test compounds were replaced every 24 h. To measure cell viability, the cells were incubated with MTS solution for 1 h. The absorbance was measured by using Infinite M200 microplate reader (Tecan, Männedorf, Switzerland) at 490 nm.
(§3) Figure 2 Effect of 5r on cell viability in HepG2, Huh7, AGS, H1299, A549, HaCaT, NIH3T3, and HEK293T cells. (A–H) HepG2, Huh7, AGS, H1299, A549, HaCaT, NIH3T3, and HEK293T cells were cultured with 5r at the indicated concentrations for 72 h, and medium was replaced every 24 h with freshly added 5r. Cell viability was measured by MTS analysis (mean ± S.D., n = 5). * p < 0.05, ** p < 0.01, *** p < 0.001.

[2] = system: Huh7 cells; assay: Cell viability assay (MTS) in Huh7 cells; type: cell-based; details: Homo sapiens, Huh-7, mean, n = 5, 72 h for 5r (Figure 2)
Experimental: as §1, §2, §3

[3] = system: HepG2 cells; assay: Cell viability assay (MTS) in HepG2 cells; type: cell-based; details: mean; for IC50: Homo sapiens, MTS, n = 5, 72 h for 5r (Figure 2); for % Inhibition of Cell Viability at 10 μM HepG2: n = 3
Experimental: as §1, §2, §3

[4] = system: HT29 cells; assay: Cell viability assay (MTS) in HT29 cells; type: cell-based; details: mean, n = 3
Experimental: as §1, §2

[5] = system: H1299 cells; assay: Cell viability assay (MTS) in H1299 cells; type: cell-based; details: 10 μM, mean, n = 3
Experimental: as §1, §2, §3

[6] = system: A549 cells; assay: Cell viability assay (MTS) in A549 cells; type: cell-based; details: 10 μM, mean, n = 3
Experimental: as §1, §2, §3

[7] = system: AGS cells; assay: Cell viability assay (MTS) in AGS cells; type: cell-based; details: 10 μM, mean, n = 3
Experimental: as §1, §2, §3

SMILES	IC50 [2] [µM]	IC50 [3] [µM]	IC50 [1] [µM]	% Inhibition of Cell Viability at 10 μM HT29 [4] [%]	% Inhibition of Cell Viability at 10 μM H1299 [5] [%]	% Inhibition of Cell Viability at 10 μM A549 [6] [%]	% Inhibition of Cell Viability at 10 μM HepG2 [3] [%]	% Inhibition of Cell Viability at 10 μM AGS [7] [%]
COc1cc(O)c(-c2nc3c(c(C#N)c4ccccn43)c3cccn23)cc1OC [Compound 5aa, 5-(2-Hydroxy-4,5-dimethoxyphenyl)pyrrolo[1′,2′:1,6]pyrimido[5,4-b]indolizine-12-carbonitrile]	0.87	1.17	2.21	–	–	–	–	–
N#Cc1c2c3cccn3c(-c3cc(Cl)ccc3O)nc2n2ccccc12 [Compound 5ab, 5-(5-Chloro-2-hydroxyphenyl)pyrrolo[1′,2′:1,6]pyrimido[5,4-b]indolizine-12-carbonitrile]	0.71	0.84	2.3	–	–	–	–	–
COC(=O)c1ccc(-c2nc3c(c(C#N)c4ccccn43)c3cccn23)cc1 [Compound 5j, Methyl 4-(12-cyanopyrrolo[1′,2′:1,6]pyrimido[5,4-b]indolizin-5-yl)benzoate]	–	–	–	<25	52.8	<25	42.2	<25
N#Cc1c2c3cccn3c(-c3ccccn3)nc2n2ccccc12 [Compound 5k, 5-(Pyridin-2-yl)pyrrolo[1′,2′:1,6]pyrimido[5,4-b]indolizine-12-carbonitrile]	–	–	–	28.8	83.8	29.0	90.6	<25
N#Cc1c2c3cccn3c(-c3cc4ccccc4[nH]3)nc2n2ccccc12 [Compound 5l, 5-(1H-Indol-2-yl)pyrrolo[1′,2′:1,6]pyrimido[5,4-b]indolizine-12-carbonitrile]	–	–	–	58.6	62.3	46.9	99.2	<25
N#Cc1c2c3cccn3c(-c3ccco3)nc2n2ccccc12 [Compound 5m, 5-(Furan-2-yl)pyrrolo[1′,2′:1,6]pyrimido[5,4-b]indolizine-12-carbonitrile]	–	–	–	<25	81.9	<25	64.0	<25
N#Cc1c2c3cccn3c(-c3cccs3)nc2n2ccccc12 [Compound 5n, 5-(Thiophen-2-yl)pyrrolo[1′,2′:1,6]pyrimido[5,4-b]indolizine-12-carbonitrile]	0.75	0.28	13.3	48.4	70.3	38.0	98.9	<25
N#Cc1c2c3cccn3cnc2n2ccccc12 [Compound 8, Pyrrolo[1′,2′:1,6]pyrimido[5,4-b]indolizine-12-carbonitrile]	–	–	–	<25	<25	<25	<25	<25
N#Cc1c2c3[nH]c4ccccc4c3c(-c3ccccc3)nc2n2ccccc12 [Compound 10a, 7-Phenyl-12H-indolizino[2′,3′:5,6]pyrido[4,3-b]indole-13-carbonitrile]	–	–	–	61.2	68.8	45.9	<25	48.4
COc1ccc(-c2nc3c(c(C#N)c4ccccn43)c3[nH]c4ccccc4c23)cc1 [Compound 10b, 7-(4-Methoxyphenyl)-12H-indolizino[2′,3′:5,6]pyrido[4,3-b]indole-13-carbonitrile]	–	–	–	<25	<25	<25	<25	<25
N#Cc1c2c3[nH]c4ccccc4c3c(-c3ccc(Br)cc3)nc2n2ccccc12 [Compound 10c, 7-(4-Bromophenyl)-12H-indolizino[2′,3′:5,6]pyrido[4,3-b]indole-13-carbonitrile]	–	–	–	<25	<25	<25	39.6	<25

More lines, main results first:

IC50 [2] [µM]	IC50 [3] [µM]	SMILES	IC50 [1] [µM]	% Inhibition of Cell Viability at 10 μM HT29 [4] [%]	% Inhibition of Cell Viability at 10 μM H1299 [5] [%]	% Inhibition of Cell Viability at 10 μM A549 [6] [%]	% Inhibition of Cell Viability at 10 μM HepG2 [3] [%]	% Inhibition of Cell Viability at 10 μM AGS [7] [%]
1.47	2	N#Cc1c2c3cccn3c(-c3cccnc3)nc2n2ccccc12 [Compound 5o, 5-(Pyridin-3-yl)pyrrolo[1′,2′:1,6]pyrimido[5,4-b]indolizine-12-carbonitrile]	3.98	–	–	–	–	–
2.25	3.42	COc1ccccc1-c1nc2c(c(C#N)c3ccccn32)c2cccn12 [Compound 5p, 5-(2-Methoxyphenyl)pyrrolo[1′,2′:1,6]pyrimido[5,4-b]indolizine-12-carbonitrile]	16.2	–	–	–	–	–
1.45	1.31	COc1cccc(-c2nc3c(c(C#N)c4ccccn43)c3cccn23)c1 [Compound 5q, 5-(3-Methoxyphenyl)pyrrolo[1′,2′:1,6]pyrimido[5,4-b]indolizine-12-carbonitrile]	8.3	–	–	–	–	–
4.02	2.94	N#Cc1c2c3cccn3c(-c3cccc(O)c3)nc2n2ccccc12 [Compound 5s, 5-(3-Hydroxyphenyl)pyrrolo[1′,2′:1,6]pyrimido[5,4-b]indolizine-12-carbonitrile]	8.49	–	–	–	–	–
1.92	1.58	N#Cc1c2c3cccn3c(-c3ccccc3F)nc2n2ccccc12 [Compound 5t, 5-(2-Fluorophenyl)pyrrolo[1′,2′:1,6]pyrimido[5,4-b]indolizine-12-carbonitrile]	6.78	–	–	–	–	–
3.95	2.1	N#Cc1c2c3cccn3c(-c3ccccc3Cl)nc2n2ccccc12 [Compound 5u, 5-(2-Chlorophenyl)pyrrolo[1′,2′:1,6]pyrimido[5,4-b]indolizine-12-carbonitrile]	11.5	–	–	–	–	–
1.33	1.48	N#Cc1c2c3cccn3c(-c3cccc(Cl)c3)nc2n2ccccc12 [Compound 5v, 5-(3-Chlorophenyl)pyrrolo[1′,2′:1,6]pyrimido[5,4-b]indolizine-12-carbonitrile]	15.3	–	–	–	–	–
2.72	1.75	N#Cc1c2c3cccn3c(-c3ccccc3Br)nc2n2ccccc12 [Compound 5w, 5-(2-Bromophenyl)pyrrolo[1′,2′:1,6]pyrimido[5,4-b]indolizine-12-carbonitrile]	9.53	–	–	–	–	–
7.85	3.52	N#Cc1c2c3cccn3c(-c3ncc[nH]3)nc2n2ccccc12 [Compound 5x, 5-(1H-Imidazol-2-yl)pyrrolo[1′,2′:1,6]pyrimido[5,4-b]indolizine-12-carbonitrile]	24.1	–	–	–	–	–
0.64	0.79	COc1ccc(O)c(-c2nc3c(c(C#N)c4ccccn43)c3cccn23)c1 [Compound 5y, 5-(2-Hydroxy-5-methoxyphenyl)pyrrolo[1′,2′:1,6]pyrimido[5,4-b]indolizine-12-carbonitrile]	2.25	–	–	–	–	–
0.71	0.64	COc1ccc(-c2nc3c(c(C#N)c4ccccn43)c3cccn23)c(O)c1 [Compound 5z, 5-(2-Hydroxy-4-methoxyphenyl)pyrrolo[1′,2′:1,6]pyrimido[5,4-b]indolizine-12-carbonitrile]	1.95	–	–	–	–	–
0.6	2.27	N#Cc1c2c3[nH]c4ccccc4c3c(-c3cccs3)nc2n2ccccc12 [Compound 10d, 7-(Thiophen-2-yl)-12H-indolizino[2′,3′:5,6]pyrido[4,3-b]indole-13-carbonitrile]	0.81	–	–	–	–	–
